In ChEMBL document CHEMBL1275453, “Resistance trends of the Bacteroides fragilis group over a 10-year period, 1997 to 2006, in Madrid, Spain” (2008):
In brackets after ≈: the same amount, converted by molar mass.

What was measured:
Type in all cases: functional
[1] = tested on: Phocaeicola vulgatus; experiment: Antibacterial activity against Bacteroides vulgatus isolate by agar dilution method
[2] = tested on: Parabacteroides merdae; experiment: Antibacterial activity against Bacteroides merdae isolate by agar dilution method
[3] = tested on: Parabacteroides distasonis; experiment: Antibacterial activity against Bacteroides distasonis isolate by agar dilution method
[4] = tested on: Bacteroides fragilis; experiment: Antibacterial activity against Bacteroides fragilis assessed as percent resistant isolates by agar dilution method
[5] = tested on: Bacteroides stercoris; experiment: Antibacterial activity against Bacteroides stercoris assessed as percent resistant isolates by agar dilution method; details: pooled result: one value given for 4 cell lines, strains, targets or settings
[6] = tested on: Bacteroides uniformis; experiment: Antibacterial activity against Bacteroides uniformis isolate by agar dilution method
[7] = tested on: Bacteroides eggerthii; experiment: Antibacterial activity against Bacteroides eggerthii isolate by agar dilution method
[8] = tested on: Bacteroides ovatus; experiment: Antibacterial activity against Bacteroides ovatus isolate by agar dilution method
[9] = tested on: Bacteroides stercoris; experiment: Antibacterial activity against Bacteroides stercoris isolate by agar dilution method
[10] = tested on: Bacteroides ovatus; experiment: Antibacterial activity against Bacteroides ovatus assessed as percent resistant isolates by agar dilution method
[11] = tested on: Bacteroides thetaiotaomicron; experiment: Antibacterial activity against Bacteroides thetaiotaomicron isolate by agar dilution method
[12] = tested on: Bacteroides uniformis; experiment: Antibacterial activity against Bacteroides uniformis assessed as percent resistant isolates by agar dilution method
[13] = tested on: Bacteroides fragilis; experiment: Antibacterial activity against Bacteroides fragilis isolate by agar dilution method
[14] = tested on: Bacteroides thetaiotaomicron; experiment: Antibacterial activity against Bacteroides thetaiotaomicron assessed as percent resistant isolates by agar dilution method
[15] = tested on: Parabacteroides distasonis; experiment: Antibacterial activity against Bacteroides distasonis assessed as percent resistant isolates by agar dilution method
[16] = tested on: Phocaeicola vulgatus; experiment: Antibacterial activity against Bacteroides vulgatus assessed as percent resistant isolates by agar dilution method
[17] = tested on: Bacteroides sp.; experiment: Antibacterial activity against Bacteroides spp. isolate by agar dilution method
[18] = tested on: Bacteroides caccae; experiment: Antibacterial activity against Bacteroides caccae isolate by agar dilution method
[19] = tested on: Bacteroides caccae; experiment: Antibacterial activity against Bacteroides caccae assessed as percent resistant isolates by agar dilution method

SMILES | MIC50 [1] [µg/mL] | MIC90 [1] [µg/mL] | MIC50 [2] [µg/mL] | MIC90 [2] [µg/mL] | MIC50 [3] [µg/mL] | MIC90 [3] [µg/mL] | Activity [4] [%] | Activity [5] [%] | MIC50 [6] [µg/mL] | MIC90 [6] [µg/mL] | MIC50 [7] [µg/mL] | MIC90 [7] [µg/mL] | MIC50 [8] [µg/mL] | MIC90 [8] [µg/mL] | MIC50 [9] [µg/mL] | MIC90 [9] [µg/mL] | Activity [10] [%] | MIC50 [11] [µg/mL] | MIC90 [11] [µg/mL] | Activity [12] [%] | other results
C[C@@H](O)[C@H]1C(=O)N2C(C(=O)O)=C(SCCNC=N)C[C@H]12 [IMIPENEM ANHYDROUS] | 0.5 (≈ 1.67 µM) | 2 (≈ 6.68 µM) | 0.25 (≈ 0.835 µM) | 2 (≈ 6.68 µM) | 1 (≈ 3.34 µM) | 1 (≈ 3.34 µM) | 0.6 | 0 | 0.25 (≈ 0.835 µM) | 2 (≈ 6.68 µM) | 0.25 (≈ 0.835 µM) | 2 (≈ 6.68 µM) | 0.25 (≈ 0.835 µM) | 2 (≈ 6.68 µM) | 0.25 (≈ 0.835 µM) | 2 (≈ 6.68 µM) | 0 | 0.5 (≈ 1.67 µM) | 2 (≈ 6.68 µM) | 0 | MIC50 [13]: 0.25 µg/mL (≈ 0.835 µM); MIC90 [13]: 1 µg/mL (≈ 3.34 µM); Activity [14]: 0.5%; Activity [15]: 0%; Activity [16]: 0%; MIC50 [17]: 0.25 µg/mL (≈ 0.835 µM); MIC90 [17]: 2 µg/mL (≈ 6.68 µM); MIC50 [18]: 0.5 µg/mL (≈ 1.67 µM); MIC90 [18]: 2 µg/mL (≈ 6.68 µM); Activity [19]: 0%
Cc1ncc([N+](=O)[O-])n1CCO [METRONIDAZOLE] | 1 (≈ 5.84 µM) | 2 (≈ 11.7 µM) | 0.5 (≈ 2.92 µM) | 2 (≈ 11.7 µM) | 1 (≈ 5.84 µM) | 2 (≈ 11.7 µM) | 0 | 0 | 1 (≈ 5.84 µM) | 2 (≈ 11.7 µM) | 0.5 (≈ 2.92 µM) | 2 (≈ 11.7 µM) | 1 (≈ 5.84 µM) | 2 (≈ 11.7 µM) | 0.5 (≈ 2.92 µM) | 2 (≈ 11.7 µM) | 0 | 1 (≈ 5.84 µM) | 2 (≈ 11.7 µM) | 0 | MIC50 [13]: 1 µg/mL (≈ 5.84 µM); MIC90 [13]: 2 µg/mL (≈ 11.7 µM); Activity [14]: 0%; Activity [15]: 0%; Activity [16]: 0%; MIC50 [17]: 0.5 µg/mL (≈ 2.92 µM); MIC90 [17]: 2 µg/mL (≈ 11.7 µM); MIC50 [18]: 1 µg/mL (≈ 5.84 µM); MIC90 [18]: 2 µg/mL (≈ 11.7 µM); Activity [19]: 0%
CN(C)c1cc(NC(=O)CNC(C)(C)C)c(O)c2c1C[C@H]1C[C@H]3[C@H](N(C)C)C(O)=C(C(N)=O)C(=O)[C@@]3(O)C(O)=C1C2=O [TIGECYCLINE] | 0.5 (≈ 0.854 µM) | 8 (≈ 13.7 µM) | 1 (≈ 1.71 µM) | 8 (≈ 13.7 µM) | 2 (≈ 3.41 µM) | 8 (≈ 13.7 µM) | 6.5 | 10.5 | 1 (≈ 1.71 µM) | 8 (≈ 13.7 µM) | 1 (≈ 1.71 µM) | 8 (≈ 13.7 µM) | 2 (≈ 3.41 µM) | 8 (≈ 13.7 µM) | 1 (≈ 1.71 µM) | 8 (≈ 13.7 µM) | 7.2 | 1 (≈ 1.71 µM) | 8 (≈ 13.7 µM) | 9.1 | MIC50 [13]: 1 µg/mL (≈ 1.71 µM); MIC90 [13]: 8 µg/mL (≈ 13.7 µM); Activity [14]: 7.5%; Activity [15]: 8.3%; Activity [16]: 6.1%; MIC50 [17]: 1 µg/mL (≈ 1.71 µM); MIC90 [17]: 8 µg/mL (≈ 13.7 µM); MIC50 [18]: 1 µg/mL (≈ 1.71 µM); MIC90 [18]: 16 µg/mL (≈ 27.3 µM); Activity [19]: 16.1%
